Measured values from ChEMBL document CHEMBL1201862, “PubChem BioAssay data set” (2004).
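Growth conditions: 96-well plates. Treatment: test compound, 48 hours, 5 concentrations. Analysis: linear interpolation between bracketing concentrations; unreached endpoints set to highest concentration. At the GI50, growth is halved.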 Calls of active or inactive are those of the source. No stated cut-off is given here; in the data, active = GI50 up to about 1.1 µM and inactive = higher.

Experiments:
Assay in all cases: NCI anticancer screen, dose series, 48 h
DLD-1 = system: DLD-1
DMS-114 = system: DMS-114
KM-20L2 = system: KM-20L2
M19-MEL = system: M19-MEL
RXF 631 = system: RXF 631
XF498 = system: XF498
DMS-273 = system: DMS-273
SNB-78 = system: SNB-78
MDA-N = system: MDA-N

Measured: GI50

CCCCCC(=O)C(C)C1=Nc2nnc(CCCCCCCc3nnc4n3C(=O)C(C(C)C(=O)CCCCC)=N4)n2C1=O (configuration not stated)
inactive: DLD-1 > 100 µM | DMS-114 > 100 µM | KM-20L2 > 100 µM | M19-MEL > 100 µM | RXF 631 > 100 µM | XF498 > 100 µM

O=C(c1cccc2ccccc12)N1CCC(C2CCN(C(=O)c3cccc4ccccc34)CC2)CC1
inactive: DLD-1 > 100 µM | DMS-114 > 100 µM | DMS-273 > 100 µM | KM-20L2 > 100 µM | M19-MEL > 100 µM | RXF 631 > 100 µM | SNB-78 70.1 µM | XF498 89.3 µM

N#CSCc1nc2ccc(Cl)cc2c(-c2ccccc2)[n+]1[O-]
inactive: DMS-114 24.5 µM | KM-20L2 16.6 µM | M19-MEL 31.8 µM | RXF 631 37.9 µM | SNB-78 36.9 µM | XF498 17.4 µM

COc1ccc(C(=O)Nc2ccccc2)cc1[N+](=O)[O-]
inactive: DLD-1 > 100 µM | DMS-114 52.4 µM | DMS-273 > 100 µM | KM-20L2 > 100 µM | M19-MEL > 100 µM | RXF 631 > 100 µM | SNB-78 > 100 µM | XF498 > 100 µM

COc1ccc(/C=C/c2cc(OC)c(OC)c(OC)c2)cc1OC
inactive: DLD-1 81.5 µM | DMS-114 > 100 µM | DMS-273 > 82.2 µM | KM-20L2 > 100 µM | RXF 631 > 100 µM | SNB-78 36.1 µM | XF498 77.8 µM

CC(=O)N1CCN(C=S)CC1
inactive: DLD-1 > 100 µM | DMS-114 > 100 µM | DMS-273 > 100 µM | KM-20L2 > 100 µM | M19-MEL > 100 µM | RXF 631 > 100 µM | SNB-78 > 100 µM | XF498 > 100 µM

CC(NS(=O)(=O)c1ccc([N+](=O)[O-])cc1)C(=O)O (configuration not stated)
inactive: DLD-1 > 100 µM | DMS-273 > 100 µM | KM-20L2 > 100 µM | RXF 631 > 100 µM | XF498 > 100 µM

CCOC(=O)c1c(CN2CCNCC2)nc2ccc(Cl)cc2c1-c1ccccc1
inactive: DLD-1 2.98 µM | DMS-114 1.91 µM | DMS-273 2.32 µM | KM-20L2 2.64 µM | M19-MEL 1.9 µM | MDA-N 5.78 µM | RXF 631 2.56 µM | SNB-78 8.18 µM | XF498 3.15 µM
